Values joined by “and” are separate entries in the source; they are usually repeats but may differ in a detail not shown here. Equal entries are not always repeated.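 Test compounds were applied to cells in 96-well plates for 48 hours at 5 doses. GI50 is the concentration that inhibits growth by half. At the TGI there is no net growth.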
Experiments:
Test in all cases: growth of human tumour cells (NCI), 48 h
UACC-257 melanoma = test system: UACC-257 melanoma
SK-OV-3 ovarian = test system: SK-OV-3 ovarian
COLO 205 colon = test system: COLO 205 colon
A549 NSCLC = test system: A549 NSCLC
SF-539 CNS = test system: SF-539 CNS
OVCAR-8 ovarian = test system: OVCAR-8 ovarian
UO-31 renal = test system: UO-31 renal
OVCAR-5 ovarian = test system: OVCAR-5 ovarian
ACHN renal = test system: ACHN renal
NCI-H460 lung = test system: NCI-H460 lung

Row | Structure (SMILES) | TGI (UACC-257 melanoma) | TGI (SK-OV-3 ovarian) | TGI (COLO 205 colon) | TGI (A549 NSCLC) | TGI (SF-539 CNS) | TGI (OVCAR-8 ovarian) | TGI (UO-31 renal) | TGI (OVCAR-5 ovarian) | TGI (ACHN renal) | TGI (NCI-H460 lung) | GI50 (UACC-257 melanoma) | GI50 (SK-OV-3 ovarian) | GI50 (COLO 205 colon) | GI50 (A549 NSCLC) | GI50 (SF-539 CNS) | GI50 (OVCAR-8 ovarian) | GI50 (UO-31 renal) | GI50 (OVCAR-5 ovarian) | GI50 (ACHN renal) | GI50 (NCI-H460 lung)
1 | CCOC(=O)CNC(=O)c1[nH]cnc1/N=N/N(C)C | > 100 µM | > 100 µM | > 100 µM | > 100 µM | > 100 µM | > 100 µM | > 100 µM | > 100 µM | > 100 µM | > 100 µM |  |  |  |  |  |  |  |  |  | 
2 | CCN1C(=O)N(CC)C2C1NC(=S)N2/N=C/C=C/c1ccccc1 (stereo not given) | > 100 µM | > 100 µM | 5.44 µM | > 100 µM | 0.871 µM | > 100 µM | > 86.6 µM | > 100 µM | > 100 µM | > 100 µM | > 100 µM | 494 nM | 213 nM | 176 nM | 63.3 nM | 270 nM | 0.192 µM | 0.465 µM | 0.098 µM | 176 nM
3 | CCCCCCCCCC1CC(=O)OC23CCCC(=O)C12O3 (stereo not given) | > 100 µM | > 100 µM | > 100 µM | > 100 µM | > 100 µM | > 100 µM | > 100 µM | > 100 µM | > 100 µM | > 100 µM |  |  |  |  |  |  |  |  |  | 
4 | NC(=O)c1nc(-c2c(F)cccc2Cl)oc1Nc1ccc(C(=O)N2CCOCC2)cc1 | 41.1 µM | 75.2 µM | 5.89 µM | > 100 µM | 5.16 µM | > 100 µM | 25.8 µM | > 100 µM | > 100 µM | > 100 µM | 11.9 µM | 2580 nM | 1640 nM | 936 nM | 1320 nM | 5830 nM | 1.2 µM | 2.31 µM | 2.41 µM | 805 nM
5 | CCOC(=O)c1cn(C)c2c(OC)c3ccccc3c(OC)c2c1=O | 40.6 µM | > 100 µM | > 100 µM | > 100 µM | > 100 µM | 63.7 µM | > 100 µM | > 100 µM | > 100 µM | > 100 µM | 16.6 µM | 77100 nM | 63800 nM | 36400 nM | 34000 nM | 20200 nM | > 100 µM | 30.9 µM | 46.8 µM | 32100 nM
6 | CC[n+]1c(-c2ccccc2)c2cc(N)ccc2c2ccc(N)cc21 | 4.8 µM and 10 µM and 6.4 µM | 23.5 µM and 25.6 µM | 2.24 µM and 7.14 µM | 48.3 µM and 76.7 µM and > 95.1 µM | 4.4 µM and 6.43 µM and 6.19 µM | 12.2 µM and 16.2 µM and 33.2 µM | > 100 µM | 57.6 µM and > 100 µM | > 100 µM | 12.3 µM and 22.5 µM and 22.1 µM | 1.22 µM | 2190 nM | 612 nM | 2170 nM | 763 nM | 695 nM and 1370 nM and 2940 nM | 21.4 µM and 86.9 µM and 27.2 µM | 5.67 µM | 14.1 µM | 1210 nM
7 | N#CN1CC[C@H](C(=O)Nc2ncc(-c3ccccc3)s2)C1 | 3.73 µM | 13.8 µM | 0.449 µM | 8.61 µM | 1.38 µM | 6.46 µM | 5.36 µM | > 100 µM | 2.49 µM | 2.47 µM | 1.52 µM | 2200 nM | 195 nM | 1900 nM | 294 nM | 450 nM | 0.549 µM | 1.39 µM | 0.562 µM | 423 nM
8 | Cc1ccc2ccc3c4ccccc4ccc3c2c1 | 83.4 µM | > 100 µM | 32.6 µM | > 100 µM | > 100 µM | > 100 µM | > 100 µM | 95.6 µM | > 100 µM | 76 µM | 27.1 µM | 39500 nM | 18000 nM | 29200 nM | 47700 nM | 32900 nM | 23.3 µM | 28.8 µM | 31.9 µM | 26300 nM
9 | C/C(CCN(C)C)=N/O | 33.2 µM | 54.1 µM | 15.8 µM | 17.4 µM | 1.89 µM | 22.8 µM | 31.5 µM | 32.9 µM | 22.3 µM | 58.5 µM |  |  |  |  |  |  |  |  |  | 
10 | O=C(CCCCN1CCN(CCCCC(=O)Nc2ccccc2C#C/C=C\C#Cc2ccccc2C(F)(F)F)CC1)Nc1ccccc1C#C/C=C\C#Cc1ccccc1C(F)(F)F | 22.5 µM | > 50 µM | > 50 µM | 37.6 µM | 19.3 µM | 28.5 µM | 48 µM | > 50 µM | > 50 µM | 25.5 µM | 10.8 µM | 18700 nM | 38300 nM | 12400 nM | 10200 nM | 12200 nM | 11.8 µM | 14.4 µM | 20.9 µM | 11200 nM
11 | CCN(CC)CCCC(Nc1c2ccc(Cl)cc2nc2ccc(OC)cc12)c1ccc(Cl)cc1 (stereo not given) | 3.22 µM | 3.89 µM | 2.87 µM | 3.05 µM | 3.1 µM | 2.47 µM | 3.08 µM | 3.36 µM | 2.81 µM | 2.88 µM | 1.68 µM | 2050 nM | 1310 nM | 1520 nM | 1560 nM | 1050 nM | 1.58 µM | 1.74 µM | 1.38 µM | 1330 nM
12 | COC(=O)C1CCC(C)CC1=O (stereo not given) | > 100 µM | > 100 µM | > 100 µM | > 100 µM | > 100 µM | > 100 µM | > 100 µM | > 100 µM | > 100 µM | > 100 µM |  |  |  |  |  |  |  |  |  | 
13 | CNC(=O)OCc1nc(SSc2nc(COC(=O)NC)c(COC(=O)NC)n2C)n(C)c1COC(=O)NC | > 100 µM | > 100 µM | > 100 µM | > 100 µM | > 100 µM | > 100 µM | > 100 µM | > 100 µM | > 100 µM | > 100 µM |  |  |  |  |  |  |  |  |  | 
14 | OCC1OC(OC2(CO)OC(CO)C(O)C2O)C(O)C(O)C1O (stereo not given) | > 100 µM | > 100 µM | > 100 µM | > 100 µM | > 100 µM | > 100 µM | > 100 µM | > 100 µM | > 100 µM | > 100 µM | > 100 µM | > 100000 nM | > 100000 nM | > 100000 nM | > 100000 nM | > 100000 nM | > 100 µM | > 100 µM | > 100 µM | > 100000 nM

Source: PubChem BioAssay (NCI)
